# Reference: patent US20020042393A1, “Excipient” (priority 1998, published 2002)
# How the values were obtained:
# [1] = Angle of repose (Sugiwara's instrument); assay type: physicochemical; conditions: excipient powder
# Text: Measured by means of a Sugiwara's instrument for measuring angle of repose (Yakuzaigaku 27, p. 260, 1965).
# [2] = Water content (Karl Fisher) of tablets before and after storage; assay type: physicochemical; conditions: tablets compressed at 500 kg/cm^2, 0 day
# Experimental: Determined as a value obtained by measuring about 0.1 g of trehalose and determining its water content by the Karl Fisher method.
# One hundred grams of commercial “Trehaose” (available from Hayashibara Biochemical Laboratories, Inc.) was dissolved in water to a concentration of about 35 wt %, and the resulting solution was concentrated under reduced pressure with heating at 60° C. so as to have a concentration of about 75 wt %, and allowed to stand at room temperature to precipitate crystals, which were washed with 50 ml of water. Glucose was removed by carrying out the above purification procedure once or twice, to increase the trehalose purity. Trehalose A was obtained by carrying out the purification procedure twice to obtain crystals, drying the crystals, grinding the dried crystals with a bantam mill (number of revolutions 15,000 rpm, feed rate 5 kg/hr, and screen opening 2.0 mmφ), and then sifting the ground crystals through a […]. Trehalose B was obtained by carrying out the purification procedure once to obtain crystals, drying the crystals, grinding the dried crystals with a bantam mill (number of revolutions 10,000 rpm, feed rate 5 kg/hr, and screen opening 2.00 mmφ), and then sifting the ground crystals through a 350-μm screen. Trehalose C was obtained by carrying out the purification procedure once to obtain crystals, drying the crystals, grinding the dried crystals with a bantam mill (number of revolutions 8,000 rpm, feed rate 5 kg/hr, and screen opening 2.0 mmφ), and then sifting the ground crystals through a 350-μm screen. […] Each of trehaloses A to C was compressed into tablets at a compression pressure of 500 kg/cm^2, and the tablet hardness immediately after the compression and the tablet hardness after standing for 3 days in an atmosphere of 40° C. and 75% RH after the compression were compared.
# “Trehaose” (available from Hayashibara Bioscience Laboratories Co., Ltd.) was purified once by the method described in Example 1 to obtain crystals, which were dried, ground with a bantam mill (number of revolutions 12,000 rpm, feed rate 5 kg/hr, and screen opening 2.0 mmφ) and then dried at 105° C. for 4 hours to obtain trehalose anhydrous crystals. These crystals were compressed into tablets at a compression pressure of 500 kg/cm^2, and the tablet hardnesses of the tablets were compared in the same manner as in Example 1.
# [3] = Average particle size (sieving, 50% cumulative weight); assay type: physicochemical; conditions: excipient powder
# Experimental: Five grams of trehalose was sifted through screens having screen openings of 500 μm, 300 μm and 250 μm, respectively, and then sifted with Air Jet Sieve by using screens having screen openings of 150 μm, 75 μm, 45 μm, 38 μm and 32 μm, respectively. The oversize particle weight percentage [%] was calculated for each screen, and the average particle size is expressed as a particle size corresponding to a cumulative weight percentage of 50%.
# [4] = Disintegration time according to Japanese Pharmacopoeia; assay type: physicochemical; conditions: listed as C
# Experimental: The disintegration time of each of six molded products was measured by the use of ion-exchanged water according to the disintegration time measuring method prescribed in the 13th revised Japanese Pharmacopoeia, and the average of measured values was calculated.
# Apparent specific volume = assay type: physicochemical; conditions: excipient powder
# Text: The whole of 10 g of trehalose powder was gently poured into a 100-ml measuring cylinder without making an impact (in this case, a cylinder having an outside diameter smaller than the inside diameter of the measuring cylinder was placed in the measuring cylinder, and it was slowly lifted after pouring the trehalose), and the apparent specific volume was expressed as a value obtained by dividing the read volume by the weight of the trehalose.
# [5] = Tablet hardness (Schleuniger hardness meter); assay type: physicochemical; conditions: for Tablet hardness at a compression pressure of 1000 kg/cm^2: phenacetin granules
# [6] = Whiteness of powder (color analyzer); assay type: physicochemical; conditions: excipient powder
# Experimental: (§1) For powder of trehalose or a pharmaceutical composition containing trehalose, values of L, a and b were measured with a color analyzer (TC-1800MKII, mfd. by Tokyo Denshoku Co., Ltd.), and the whiteness of the trehalose or pharmaceutical composition was calculated by the following equation: […]
# [7] = Proportion of particles of 75 μm or more (Air Jet Sieve); assay type: physicochemical; conditions: excipient powder
# Experimental: Five grams of trehalose was weighed onto a screen having a screen opening of 75 μm, and sifted with Air Jet Sieve (Model 200LS, mfd. by ALPINE) for 5 minutes, and the weight percentage of the weight of particles remaining on the screen based on the total weight of particles was calculated as the proportion of particles of 75 μm or more.
# [8] = Change in whiteness of excipient mixed with drug at 40° C. and 75% RH (reactivity); assay type: physicochemical
# Experimental: as §1
# One gram of each of the trehaloses obtained in Example 1 and 1 g of isoniazid were mixed and then allowed to stand in an atmosphere of 40° C. and 75% RH, and the change in whiteness of the trehalose was observed. On the other hand, 1 g of each of the trehaloses obtained in Example 1 and 1 g of aminophyline were mixed and then allowed to stand in an atmosphere of 40° C. and 75% RH, and the change in whiteness of the trehalose was observed.
# One gram of 100-mesh lactose (available from De Melkindustrie Veghel bv) or 1 g of Mannit S (available from Tohwa Kasei Co., Ltd.) and 1 g of aminophyline were mixed and then allowed to stand in an atmosphere of 40° C. and 75% RH, and the change in whiteness of the lactose or Mannit S was observed.
# As a starting material. […]
# [9] = Wet granulation of phenacetin mixture with HPC binder solution: granule size and yield
# [10] = 1 g excipient + 1 g aminophyline, 0 day
# [11] = 1 g excipient + 1 g aminophyline, 40° C. and 75% RH, 5 days
smiles,measurement,setting,value
"OC[C@H]1O[C@H](O[C@H]2O[C@H](CO)[C@@H](O)[C@H](O)[C@H]2O)[C@H](O)[C@@H](O)[C@@H]1O [Trehalose C, trehalose]",Angle of repose,[1]; listed as C,40 °
same,Water content,[2]; listed as C,9.8%
same,Average particle size,[3]; listed as C,127 μm
same,Disintegration time according to Japanese Pharmacopoeia,"[4]; Example 8: molded product of trehalose only, 30 kg/cm^2",10 s
same,Disintegration time according to Japanese Pharmacopoeia,[4]; Example 10: as Example 9 but molded at 60 kg/cm^2,33 s
same,Disintegration time according to Japanese Pharmacopoeia,"[4]; process of Example 9: 950 g excipient + 50 g phenylpropanolamine hydrochloride, 30 kg/cm^2",10 s
same,Apparent specific volume,Apparent specific volume; listed as C,1.9 cm^3/g
same,Tablet hardness,"[5]; Example 8: molded product of trehalose only, molded at 30 kg/cm^2, dried overnight at 40° C., listed as C",6.0 kg
same,Tablet hardness,"[5]; Example 10: as Example 9 but molded at 60 kg/cm^2, listed as C",8.6 kg
same,Tablet hardness,"[5]; process of Example 9: 950 g excipient + 50 g phenylpropanolamine hydrochloride, molded at 30 kg/cm^2, listed as C",5.6 kg
same,Tablet hardness,"[5]; tablets compressed at 500 kg/cm^2, 0 day (immediately after compression), listed as C",2.3 kgf
same,Tablet hardness,"[5]; tablets compressed at 500 kg/cm^2, 3 days at 40° C. and 75% RH, listed as C",2.3 kgf
same,Whiteness,[6]; listed as C,95%
same,Proportion of particles of 75 μm or more,[7]; listed as C,73%
same,Whiteness,"[8]; 1 g excipient + 1 g aminophyline, 0 day, listed as C",98%
same,Whiteness,"[8]; 1 g excipient + 1 g aminophyline, 40° C. and 75% RH, 1 month, listed as C",93%
same,Whiteness,"[8]; 1 g excipient + 1 g isoniazid, 0 day, listed as C",97%
same,Whiteness,"[8]; 1 g excipient + 1 g isoniazid, 40° C. and 75% RH, 1 month, listed as C",93%
"OC[C@H]1O[C@H](O[C@H]2O[C@H](CO)[C@@H](O)[C@H](O)[C@H]2O)[C@H](O)[C@@H](O)[C@@H]1O [Trehalose M, trehalose]",Average particle size,[3]; listed as M,8 μm
same,Apparent specific volume,Apparent specific volume; listed as M,3.8 mL/g
same,Whiteness,[6]; listed as M,97%
same,Proportion of particles of 75 μm or more,[7]; listed as M,1%
"OC[C@@H](O)[C@@H](O)[C@H](O)[C@H](O)CO [Mannit S, reference compound]",Angle of repose,[1]; listed as Mannit 5,53 °
same,Average particle size,[3]; listed as Mannit 5,102 μm
same,Apparent specific volume,Apparent specific volume; listed as Mannit 5,1.7 cm^3/g
same,Proportion of particles of 75 μm or more,[7]; listed as Mannit 5,68%
same,Whiteness,[8]; [10],100%
same,Whiteness,"[8]; 1 g excipient + 1 g aminophyline, 40° C. and 75% RH, 1 month",93%
same,Whiteness,[8]; [11],98%
"OC[C@H]1O[C@@H](O[C@H]2[C@H](O)[C@@H](O)C(O)O[C@@H]2CO)[C@H](O)[C@@H](O)[C@H]1O (some centres unmarked) [100-Mesh lactose, lactose, reference compound]",Angle of repose,[1],43 °
same,Average particle size,[3],104 μm
same,Apparent specific volume,Apparent specific volume,1.5 cm^3/g
same,Proportion of particles of 75 μm or more,[7],76%
same,Whiteness,[8]; [10],99%
same,Whiteness,[8]; [11],30%
"OC[C@H]1O[C@H](O[C@H]2O[C@H](CO)[C@@H](O)[C@H](O)[C@H]2O)[C@H](O)[C@@H](O)[C@@H]1O [Trehalose I, trehalose]",Angle of repose,[1],30 °
same,Average particle size,[3],280 μm
same,Apparent specific volume,Apparent specific volume,1.4 cm^3/g
same,Whiteness,[6],96%
same,Proportion of particles of 75 μm or more,[7],95%
"OC[C@H]1O[C@H](O[C@H]2O[C@H](CO)[C@@H](O)[C@H](O)[C@H]2O)[C@H](O)[C@@H](O)[C@@H]1O [Trehalose L, trehalose]",Average particle size,[3]; listed as L,45 μm
same,Apparent specific volume,Apparent specific volume; listed as L,2.5 mL/g
same,Whiteness,[6]; listed as L,95%
same,Proportion of particles of 75 μm or more,[7]; listed as L,25%
"OC[C@H]1O[C@H](O[C@H]2O[C@H](CO)[C@@H](O)[C@H](O)[C@H]2O)[C@H](O)[C@@H](O)[C@@H]1O [Trehalose G, trehalose]",Angle of repose,[1]; listed as G,49 °
same,Average particle size,[3]; listed as G,31 μm
same,Apparent specific volume,Apparent specific volume; listed as G,3.1 cm^3/g
same,Whiteness,[6]; listed as G,94%
same,Proportion of particles of 75 μm or more,[7]; listed as G,13%
same,Whiteness,"[8]; same manner as in Example 2 (drug not stated), 0 day",94%
same,Whiteness,"[8]; same manner as in Example 2 (drug not stated), 40° C. and 75% RH, 1 month, listed as G",87%
same,Whiteness,"[8]; same manner as in Example 2 (drug not stated), 40° C. and 75% RH, 1 month, listed as trehalose G",less than 90%
"OC[C@H]1O[C@H](O[C@H]2O[C@H](CO)[C@@H](O)[C@H](O)[C@H]2O)[C@H](O)[C@@H](O)[C@@H]1O [Trehalose D, trehalose]",Angle of repose,[1]; listed as D,65 °
same,Angle of repose,[1]; listed as trehalose D,65 °
same,Average particle size,[3]; listed as D,12 μm
same,Apparent specific volume,Apparent specific volume; listed as D,4.5 cm^3/g
same,Tablet hardness at a compression pressure of 1000 kg/cm^2,[5]; binding solution 100 g,4.5 kgf
same,Tablet hardness at a compression pressure of 1000 kg/cm^2,[5]; binding solution 120 g,4.1 kgf
same,Tablet hardness at a compression pressure of 1000 kg/cm^2,[5]; binding solution 160 g,3.0 kgf
same,Whiteness,[6]; listed as D,96%
same,Proportion of particles of 75 μm or more,[7]; listed as D,1%
same,Average particle size of granules,"[9]; phenacetin 50/excipient 30/corn starch 10/microcrystalline cellulose 10, binding solution 100 g",80 μm
same,Average particle size of granules,"[9]; phenacetin granules, binding solution 120 g",121 μm
same,Average particle size of granules,"[9]; phenacetin granules, binding solution 160 g",205 μm
"OC[C@H]1O[C@H](O[C@H]2O[C@H](CO)[C@@H](O)[C@H](O)[C@H]2O)[C@H](O)[C@@H](O)[C@@H]1O [Trehalose E, trehalose]",Angle of repose,[1]; listed as E,55 °
same,Angle of repose,[1]; listed as trehalose E,more than 50 °
same,Average particle size,[3]; listed as E,25 μm
same,Apparent specific volume,Apparent specific volume; listed as E,3.7 cm^3/g
same,Whiteness,[6]; listed as E,96%
same,Proportion of particles of 75 μm or more,[7]; listed as E,3%
"OC[C@H]1O[C@H](O[C@H]2O[C@H](CO)[C@@H](O)[C@H](O)[C@H]2O)[C@H](O)[C@@H](O)[C@@H]1O [Trehalose F, trehalose]",Angle of repose,[1]; listed as F,45 °
same,Water content,[2]; listed as F,0.5%
same,Average particle size,[3]; listed as F,49 μm
same,Apparent specific volume,Apparent specific volume; listed as F,2.3 cm^3/g
same,Tablet hardness,"[5]; tablets compressed at 500 kg/cm^2, 0 day (immediately after compression), listed as F",4.5 kgf
same,Whiteness,[6]; listed as F,94%
same,Proportion of particles of 75 μm or more,[7]; listed as F,28%
"OC[C@H]1O[C@H](O[C@H]2O[C@H](CO)[C@@H](O)[C@H](O)[C@H]2O)[C@H](O)[C@@H](O)[C@@H]1O [Trehalose N, trehalose]",Average particle size,[3]; listed as N,70 μm
same,Apparent specific volume,Apparent specific volume; listed as N,2.2 mL/g
same,Whiteness,[6]; listed as N,88%
same,Proportion of particles of 75 μm or more,[7]; listed as N,45%
"OC[C@H]1O[C@H](O[C@H]2O[C@H](CO)[C@@H](O)[C@H](O)[C@H]2O)[C@H](O)[C@@H](O)[C@@H]1O [Trehalose H, trehalose]",Angle of repose,[1],37 °
same,Average particle size,[3],180 μm
same,Apparent specific volume,Apparent specific volume,1.5 cm^3/g
same,Whiteness,[6],98%
same,Proportion of particles of 75 μm or more,[7],91%
